Measurements as given in paper PMC2729922, “Pharmacological Targeting of Native CatSper Channels Reveals a Required Role in Maintenance of Sperm Hyperactivation” (PLoS ONE, 2009).

Target: T1, CatSper channel (CatSper1) (Mus musculus, UniProt A2ARP9+Q80W99+Q8BVN3+Q91ZR5)
T1 construct: native channel in mouse sperm; with CatSper2, CatSper3, CatSper4
Assay: whole-sperm patch clamp of native CatSper currents; also SBFI and fura-2 photometry (abstract IC50 […] by optical assay)
Format: cell-based

T1 sequence (Q91ZR5 whole entry): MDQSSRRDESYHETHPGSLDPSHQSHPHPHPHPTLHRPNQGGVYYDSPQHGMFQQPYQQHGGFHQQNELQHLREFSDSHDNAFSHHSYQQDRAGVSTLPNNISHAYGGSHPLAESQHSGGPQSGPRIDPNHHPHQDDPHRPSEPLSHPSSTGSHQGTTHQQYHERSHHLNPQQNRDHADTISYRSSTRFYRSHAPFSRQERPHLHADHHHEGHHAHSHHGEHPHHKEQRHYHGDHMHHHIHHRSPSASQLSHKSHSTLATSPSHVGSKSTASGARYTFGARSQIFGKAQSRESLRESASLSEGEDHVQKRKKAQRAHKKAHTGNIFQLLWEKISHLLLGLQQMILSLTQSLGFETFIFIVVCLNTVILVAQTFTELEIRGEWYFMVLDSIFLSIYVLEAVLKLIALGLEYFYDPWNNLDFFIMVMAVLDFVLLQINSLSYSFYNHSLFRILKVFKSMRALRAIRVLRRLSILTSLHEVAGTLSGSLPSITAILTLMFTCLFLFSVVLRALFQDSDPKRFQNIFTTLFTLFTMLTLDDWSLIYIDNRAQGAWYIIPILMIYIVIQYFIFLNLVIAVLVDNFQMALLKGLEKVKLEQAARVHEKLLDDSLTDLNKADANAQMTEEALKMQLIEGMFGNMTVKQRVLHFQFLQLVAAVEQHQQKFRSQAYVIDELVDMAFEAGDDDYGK
T1 sequence (A2ARP9 whole entry): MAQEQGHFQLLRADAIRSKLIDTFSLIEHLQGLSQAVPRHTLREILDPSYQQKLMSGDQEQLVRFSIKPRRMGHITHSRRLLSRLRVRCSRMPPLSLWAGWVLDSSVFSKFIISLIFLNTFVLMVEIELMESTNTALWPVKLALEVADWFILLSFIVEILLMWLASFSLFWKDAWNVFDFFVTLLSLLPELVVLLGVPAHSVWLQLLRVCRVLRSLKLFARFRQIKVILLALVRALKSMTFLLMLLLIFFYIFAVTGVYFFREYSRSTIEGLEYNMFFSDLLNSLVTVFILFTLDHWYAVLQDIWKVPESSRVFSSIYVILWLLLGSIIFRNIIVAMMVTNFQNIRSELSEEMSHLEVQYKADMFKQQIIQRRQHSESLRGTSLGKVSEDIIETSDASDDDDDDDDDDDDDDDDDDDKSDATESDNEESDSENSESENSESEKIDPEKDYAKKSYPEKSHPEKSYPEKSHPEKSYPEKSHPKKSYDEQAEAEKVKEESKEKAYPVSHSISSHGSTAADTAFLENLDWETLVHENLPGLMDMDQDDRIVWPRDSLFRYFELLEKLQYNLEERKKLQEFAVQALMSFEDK
T1 sequence (Q80W99 whole entry): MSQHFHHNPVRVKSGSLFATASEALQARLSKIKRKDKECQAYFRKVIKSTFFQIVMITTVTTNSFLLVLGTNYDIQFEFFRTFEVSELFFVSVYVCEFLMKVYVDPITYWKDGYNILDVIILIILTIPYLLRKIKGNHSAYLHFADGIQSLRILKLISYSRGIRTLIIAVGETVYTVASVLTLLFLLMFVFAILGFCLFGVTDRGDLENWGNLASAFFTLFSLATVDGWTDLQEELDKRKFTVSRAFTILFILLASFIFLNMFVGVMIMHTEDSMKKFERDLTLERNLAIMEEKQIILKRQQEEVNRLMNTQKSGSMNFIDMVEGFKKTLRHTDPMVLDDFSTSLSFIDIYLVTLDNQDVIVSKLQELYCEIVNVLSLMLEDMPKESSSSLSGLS
T1 sequence (Q8BVN3 whole entry): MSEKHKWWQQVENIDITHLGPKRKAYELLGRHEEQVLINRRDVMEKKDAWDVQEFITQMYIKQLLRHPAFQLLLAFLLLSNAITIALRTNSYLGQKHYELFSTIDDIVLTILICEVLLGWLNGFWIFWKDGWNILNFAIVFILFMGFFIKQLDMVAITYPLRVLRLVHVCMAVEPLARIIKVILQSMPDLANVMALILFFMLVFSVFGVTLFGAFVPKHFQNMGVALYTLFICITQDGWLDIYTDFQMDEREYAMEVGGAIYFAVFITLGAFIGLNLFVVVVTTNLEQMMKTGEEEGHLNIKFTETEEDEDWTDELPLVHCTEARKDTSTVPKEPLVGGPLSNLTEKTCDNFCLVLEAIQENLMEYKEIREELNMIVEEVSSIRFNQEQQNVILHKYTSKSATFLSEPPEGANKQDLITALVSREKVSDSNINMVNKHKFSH

IC50: ~15 µM
SMILES: O=C(c1cccs1)c1no[n+]([O-])c1C(=O)c1cccs1 [HC-056456, 3,4-bis(2-thienylcarbonyl)-1,2,5-oxadiazole-2-ium-2-olate]
